Data on 31 compounds can be found in US9169240B2, “Ketone linked benzothiazole inhibitors of endothelial lipase” (BRISTOL-MYERS SQUIBB COMPANY, priority 2012, dated 2015).

What is called IC50 is the concentration that inhibits the measured activity by half.

Sequence of Endothelial lipase (EL) (Q9Y5X9 21-500): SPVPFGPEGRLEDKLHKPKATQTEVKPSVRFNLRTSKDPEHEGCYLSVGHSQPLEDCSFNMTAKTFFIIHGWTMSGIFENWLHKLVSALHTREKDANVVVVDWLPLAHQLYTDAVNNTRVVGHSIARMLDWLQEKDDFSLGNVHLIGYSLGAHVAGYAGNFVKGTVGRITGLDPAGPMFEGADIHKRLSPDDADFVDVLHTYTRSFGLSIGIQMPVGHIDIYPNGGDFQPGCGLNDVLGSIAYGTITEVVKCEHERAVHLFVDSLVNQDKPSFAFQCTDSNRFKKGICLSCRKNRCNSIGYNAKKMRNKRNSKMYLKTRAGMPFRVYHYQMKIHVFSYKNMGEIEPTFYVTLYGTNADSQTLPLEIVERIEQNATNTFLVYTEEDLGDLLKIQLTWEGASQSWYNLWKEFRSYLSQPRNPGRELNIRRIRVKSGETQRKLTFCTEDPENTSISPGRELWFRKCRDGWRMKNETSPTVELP

This assay has as its target Endothelial lipase (EL) (Homo sapiens (Human), UniProt Q9Y5X9). In words: Endothelial lipase (EL) activity assay with fluorescent substrate A10070 in DMPG vesicles. It counts as biochemical. Here is the method: Endothelial lipase activity was measured using a fluorescent substrate, A10070, (Invitrogen, CA) doped into an artificial vesicle containing DMPG (Avanti Polar Lipids) as the excipient. Vesicles were prepared by combining 285 μL of 1 mM DMPG in a 1:1 mixture of MeOH and CHCl3 with 15 μL of 1 mM A10070 in a 1:1 mixture of MeOH and CHCl3. The mixture was dried under nitrogen and resuspended in 150 μL of 50 mM HEPES pH 8.0 buffer containing 100 mM NaCl and 0.2 mM EDTA. The sample was allowed to sit at rt for 15 min and then was sonicated 3×4 mins on ice with a Branson Sonicator using duty cycle 1. This preparation provides vesicles with a mole fraction of 0.05 for the FRET substrate.
The enzymatic assay was measured using white, opaque 96-well half area plates. Each well contained 60 μL of assay buffer (50 mM HEPES pH 8.0, 50 mM NaCl and 1 mM CaCl2) and 2 ul of a DMSO solution containing compound of interest. Conditioned media obtained from HT-1080 cells, which were transformed by RAGE technology (Athersys) to overexpress endogenous EL, was added and the reaction was allowed to incubate for 20 min at 37° C. with gentle agitation. The reaction was started by the addition of 20 μL of a 1:4 dilution of vesicles. The final total reaction volume was 100 μL. The reaction rates were measured on a Gemini plate reader with an excitation wavelength of 488 nm and an emission of 530 nm. Readings were taken every 20 seconds for 10 min with agitation between each reading. The slope of the linear portion of the readout was used to calculate the rate of the reaction.
The compound `Cc1ccc(S(=O)(=O)Nc2nnc(C(=O)c3nc4ccc(-c5ccccc5)cc4s3)o2)cc1` [Example 90, 4-Methyl-N-(5-(6-phenylbenzo[d]thiazole-2-carbonyl)-1,3,4-oxadiazol-2-yl)benzenesulfonamide] had an IC50 of 340 nM.
`O=C(c1nnc(N2CC[C@@H](c3ccccc3)C2)o1)c1nc2ccc(-c3ccccc3)cc2s1` [Example 79, (S)-(6-phenylbenzo[d]thiazol-2-yl)(5-(3-phenylpyrrolidin-1-yl)-1,3,4-oxadiazol-2-yl)methanone] showed an IC50 of 310 nM.
In turn, `COc1nc(-c2nnc(C(=O)c3nc4ccc(-c5ccccc5)cc4s3)o2)c(O)c(=O)[nH]1` [Example 47, 5-Hydroxy-2-methoxy-6-(5-(6-phenylbenzo[d]thiazole-2-carbonyl)-1,3,4-oxadiazol-2-yl)pyrimidin-4(3H)-one] registered an IC50 of 19 nM.
The compound `COC(=O)N[C@H]1CC[C@H](c2nnc(C(=O)c3nc4ccc(-c5ccccc5)cc4s3)o2)CC1` [Example 6, methyl ((1R,4R)-4-(5-(6-phenylbenzo[d]thiazole-2-carbonyl)-1,3,4-oxadiazol-2-yl)cyclohexyl)carbamate] displayed an IC50 of 99 nM. Compared with the last compound, the IC50 is about 5.2-fold higher.
On to `O=C(c1nnc(NCCc2ccncc2)o1)c1nc2ccc(-c3ccccc3)cc2s1` [Example 73, (6-phenylbenzo[d]thiazol-2-yl)(5-((2-(pyridin-4-yl)ethyl)amino)-1,3,4-oxadiazol-2-yl)methanone], for which the IC50 is 180 nM.
The compound `CC(C)(C)OC(=O)N[C@H]1CC[C@H](c2nnc(C(=O)c3nc4ccc(-c5ccccc5)cc4s3)o2)CC1` [Example 16, tert-butyl ((1r,4r)-4-(5-(6-phenylbenzo[d]thiazole-2-carbonyl)-1,3,4-oxadiazol-2-yl)cyclohexyl)carbamate] came in with an IC50 of 31 nM.
For `CC1(Cc2nnc(C(=O)c3nc4ccc(-c5ccc(F)cc5)cc4s3)o2)NC(=O)NC1=O` (stereo not shown) [Example 35, 5-((5-(6-(4-fluoro-phenyl)benzo[d]thiazole-2-carbonyl)-1,3,4-oxadiazol-2-yl)methyl)-5-methyl-imidazolidine-2,4-dione] the value was less than 10 nM; for `O=C(c1nnc(NCCc2cccnc2)o1)c1nc2ccc(-c3ccccc3)cc2s1` [Example 76, (6-phenylbenzo[d]thiazol-2-yl)(5-((2-(pyridin-3-yl)ethyl)amino)-1,3,4-oxadiazol-2-yl)methanone], 36 nM.
For `O=C(c1nnc(NC2CC2)o1)c1nc2ccc(-c3ccc(F)cc3)cc2s1` [Example 66, (5-(cyclopropylamino)-1,3,4-oxadiazol-2-yl)(6-(4-fluorophenyl)benzo[d]thiazol-2-yl)methanone] the value was 290 nM; for `CC1(Cc2nnc(C(=O)c3nc4ccc(-c5ccccc5)cc4s3)o2)NC(=O)NC1=O` (stereo not shown) [Example 34, 5-methyl-5-((5-(6-phenylbenzo[d]thiazole-2-carbonyl)-1,3,4-oxadiazol-2-yl)methyl)-imidazol-idine-2,4-dione], less than 10 nM.
Turning to `NS(=O)(=O)Cc1nnc(C(=O)c2nc3c(F)cc(-c4ccccc4)cc3s2)o1` [Example 12, (5-(4-fluoro-6-phenylbenzo[d]thiazole-2-carbonyl)-1,3,4-oxadiazol-2-yl)methanesulfonamide], the IC50 was less than 10 nM.
On to `NC(=O)[C@@H](CCC(F)(F)F)Nc1nnc(C(=O)c2nc3ccc(-c4ccccc4)cc3s2)o1` [Example 75, (R)-5,5,5-trifluoro-2-((5-(6-phenylbenzo[d]thiazole-2-carbonyl)-1,3,4-oxadiazol-2-yl)amino) pentanamide], for which the IC50 is 28 nM. In other words, the double-digit nanomolar range.
With `NC(=O)CNc1nnc(C(=O)c2nc3ccc(-c4ccccc4)cc3s2)o1` [Example 58, 2-((5-(6-phenylbenzo[d]thiazole-2-carbonyl)-1,3,4-oxadiazol-2-yl)amino) acetamide] the figure was 104 nM; with `O=C(c1nnc(N2CC[C@H](c3ccccc3)C2)o1)c1nc2ccc(-c3ccccc3)cc2s1` [Example 80, (R)-(6-phenylbenzo[d]thiazol-2-yl)(5-(3-phenylpyrrolidin-1-yl)-1,3,4-oxadiazol-2-yl)methanone], 450 nM; with `CC1(Cc2nnc(C(=O)c3nc4ccc(-c5ccccc5)cc4s3)o2)NC(=O)N(CC(F)(F)F)C1=O` (stereo not shown) [Example 38, 5-methyl-5-((5-(6-phenylbenzo[d]thiazole-2-carbonyl)-1,3,4-oxadiazol-2-yl)methyl)-3-(2,2,2-trifluoro-ethyl)imidazol-idine-2,4-dione], 11 nM.
`CC(C)(C)CN1CC(c2nnc(C(=O)c3nc4ccc(-c5ccccc5)cc4s3)o2)C1` [Example 42] had an IC50 of 20 nM.
For `O=C(c1nnc(N(CC(F)(F)F)[C@H]2CCNC2=O)o1)c1nc2ccc(-c3ccccc3)cc2s1` [Example 84, (S)-3-((5-(6-Phenylbenzo[d]thiazole-2-carbonyl)-1,3,4-oxadiazol-2-yl)(2,2,2-trifluoroethyl)amino)pyrrolidin-2-one], the IC50 is less than 10 nM.
`O=C(c1nnc(C2CCS(=O)(=O)N2)o1)c1nc2ccc(-c3ccccc3)cc2s1` (stereo not shown) [Example 11, (5-(1,1-dioxidoisothiazolidin-3-yl)-1,3,4-oxadiazol-2-yl)(6-phenylbenzo[d]thiazol-2-yl)methanone] showed an IC50 of less than 10 nM.
Turning to `CC(C)(C)OC(=O)N1CCC(c2nnc(C(=O)c3nc4ccc(-c5ccc(F)cc5)cc4s3)o2)CC1` [Example 18, tert-butyl 4-(5-(6-(4-fluorophenyl)benzo[d]thiazole-2-carbonyl)-1,3,4-oxadiazol-2-yl)piperidine-1-carboxylate], the IC50 was less than 10 nM.
For `CC(C)(C)OC(=O)N1CCC(CCc2nnc(C(=O)c3nc4ccc(-c5ccc(F)cc5)cc4s3)o2)CC1` [Example 15, tert-butyl 4-(2-(5-(6-(4-fluorophenyl)benzo[d]thiazole-2-carbonyl)-1,3,4-oxadiazol-2-yl)ethyl)piperidine-1-carboxylate] the value was less than 10 nM; for `O=C(c1nnc(NC2CCCNC2=O)o1)c1nc2ccc(-c3ccccc3)cc2s1` (single isomer, unassigned) [Example 78, 3-((5-(6-phenylbenzo[d]thiazole-2-carbonyl)-1,3,4-oxadiazol-2-yl)amino)piperidin-2-one], 27 nM.
With `CN1CCC(Nc2nnc(C(=O)c3nc4ccc(-c5ccccc5)cc4s3)o2)C1=O` (stereo not shown) [Example 71, 1-methyl-3-((5-(6-phenylbenzo[d]thiazole-2-carbonyl)-1,3,4-oxadiazol-2-yl)amino)pyrrolidin-2-one] the figure was 22 nM; with `CN(Cc1nnc(C(=O)c2nc3ccc(-c4ccccc4)cc3s2)o1)S(N)(=O)=O` [Example 27, N-methyl-N-((5-((6-phenyl-1,3-benzothiazol-2-yl)carbonyl)-1,3,4-oxadiazol-2-yl)methyl)sulfamide], 23 nM; with `O=C(c1nnc(CCC2CCN(CC3CC3)CC2)o1)c1nc2ccc(-c3ccccc3)cc2s1` [Example 19, (5-(2-(1-(cyclopropylmethyl)piperidin-4-yl)ethyl)-1,3,4-oxadiazol-2-yl)(6-phenylbenzo[d]thiazol-2-yl)methanone], 13 nM.
For `NC(=O)c1ccc(-c2ccc3nc(C(=O)c4nnc(N[C@H]5CCNC5=O)o4)sc3c2)cc1` [Example 51, (S)-4-(2-(5-((2-Oxopyrrolidin-3-yl)amino)-1,3,4-oxadiazole-2-carbonyl)benzo[d]thiazol-6-yl)benzamide] the value was less than 10 nM; for `NS(=O)(=O)c1ccc(-c2ccc3nc(C(=O)c4nnc(N[C@H]5CCNC5=O)o4)sc3c2)cc1` [Example 83, (S)-4-(2-(5-((2-oxopyrrolidin-3-yl)amino)-1,3,4-oxadiazole-2-carbonyl)benzo[d]thiazol-6-yl)benzenesulfonamide], less than 10 nM; for `CC(C)NC(=O)CNc1nnc(C(=O)c2nc3ccc(-c4ccccc4)cc3s2)o1` [Example 74, N-isopropyl-2-((5-(6-phenylbenzo [d]thiazole-2-carbonyl)-1,3,4-oxadiazol-2-yl)amino)acetamide], 150 nM.
Compound `O=C(c1nnc(CC2CCNC2=O)o1)c1nc2ccc(-c3ccccc3)cc2s1` (stereo not shown) [Example 1] came in with an IC50 of less than 10 nM.
`COc1ccc(CCNc2nnc(C(=O)c3nc4ccc(-c5ccc(F)cc5)cc4s3)o2)cc1` [Example 62, (6-(4-fluorophenyl)benzo[d]thiazol-2-yl)(5-((4-methoxyphenethyl)amino)-1,3,4-oxadiazol-2-yl)methanone] showed an IC50 of 240 nM.
With `O=C(c1nnc(N2CCN(c3ccc(C(F)(F)F)cc3)CC2)o1)c1nc2ccc(-c3ccccc3)cc2s1` [Example 88, (6-Phenylbenzo[d]thiazol-2-yl)(5-(4-(4-(trifluoromethyl)phenyl)piperazin-1-yl)-1,3,4-oxadiazol-2-yl)methanone] the figure was 494 nM; with `COCCNc1nnc(C(=O)c2nc3ccc(-c4ccccc4)cc3s2)o1` [Example 52, (5-((2-methoxyethyl)amino)-1,3,4-oxadiazol-2-yl)(6-phenylbenzo[d]thiazol-2-yl)methanone], 110 nM.
